Assay results from patent US12116422B2, “Stapled peptide and use thereof in preparation of drug for treating pancreatic cancer” (Ruijin Hospital, Shanghai Jiao Tong University School of …, priority 2022, dated 2024).
Entries after “also recorded” stand apart in the source; their conditions may differ. Read-outs that look alike come from different tables or passages of the source. Where a SMILES comes first, the peptide text is derived from it. Bridges are numbered along the chain shown (N, C = ends). Where no end group is shown, it is not given here. [ ]: non-standard residue; d: D form. R5 = C=CCCC[C@@](C)(N)C(=O)O

What was measured:
[1] = biological target: T1, ANK domain of N1ICD (Homo sapiens, UniProt P46531); assay: KD (M)
Source text: Table printed on a drawing sheet, FIG. 1C
(§1) Head of the field: KD (M)
First copying reader's note: Brackets drawn over the sequences join the two S5 residues of each staple; the SAH-mAH2-5 row is printed in lighter (highlighted) type.
Target sequence in this assay (P46531 19-2555 limits assumed): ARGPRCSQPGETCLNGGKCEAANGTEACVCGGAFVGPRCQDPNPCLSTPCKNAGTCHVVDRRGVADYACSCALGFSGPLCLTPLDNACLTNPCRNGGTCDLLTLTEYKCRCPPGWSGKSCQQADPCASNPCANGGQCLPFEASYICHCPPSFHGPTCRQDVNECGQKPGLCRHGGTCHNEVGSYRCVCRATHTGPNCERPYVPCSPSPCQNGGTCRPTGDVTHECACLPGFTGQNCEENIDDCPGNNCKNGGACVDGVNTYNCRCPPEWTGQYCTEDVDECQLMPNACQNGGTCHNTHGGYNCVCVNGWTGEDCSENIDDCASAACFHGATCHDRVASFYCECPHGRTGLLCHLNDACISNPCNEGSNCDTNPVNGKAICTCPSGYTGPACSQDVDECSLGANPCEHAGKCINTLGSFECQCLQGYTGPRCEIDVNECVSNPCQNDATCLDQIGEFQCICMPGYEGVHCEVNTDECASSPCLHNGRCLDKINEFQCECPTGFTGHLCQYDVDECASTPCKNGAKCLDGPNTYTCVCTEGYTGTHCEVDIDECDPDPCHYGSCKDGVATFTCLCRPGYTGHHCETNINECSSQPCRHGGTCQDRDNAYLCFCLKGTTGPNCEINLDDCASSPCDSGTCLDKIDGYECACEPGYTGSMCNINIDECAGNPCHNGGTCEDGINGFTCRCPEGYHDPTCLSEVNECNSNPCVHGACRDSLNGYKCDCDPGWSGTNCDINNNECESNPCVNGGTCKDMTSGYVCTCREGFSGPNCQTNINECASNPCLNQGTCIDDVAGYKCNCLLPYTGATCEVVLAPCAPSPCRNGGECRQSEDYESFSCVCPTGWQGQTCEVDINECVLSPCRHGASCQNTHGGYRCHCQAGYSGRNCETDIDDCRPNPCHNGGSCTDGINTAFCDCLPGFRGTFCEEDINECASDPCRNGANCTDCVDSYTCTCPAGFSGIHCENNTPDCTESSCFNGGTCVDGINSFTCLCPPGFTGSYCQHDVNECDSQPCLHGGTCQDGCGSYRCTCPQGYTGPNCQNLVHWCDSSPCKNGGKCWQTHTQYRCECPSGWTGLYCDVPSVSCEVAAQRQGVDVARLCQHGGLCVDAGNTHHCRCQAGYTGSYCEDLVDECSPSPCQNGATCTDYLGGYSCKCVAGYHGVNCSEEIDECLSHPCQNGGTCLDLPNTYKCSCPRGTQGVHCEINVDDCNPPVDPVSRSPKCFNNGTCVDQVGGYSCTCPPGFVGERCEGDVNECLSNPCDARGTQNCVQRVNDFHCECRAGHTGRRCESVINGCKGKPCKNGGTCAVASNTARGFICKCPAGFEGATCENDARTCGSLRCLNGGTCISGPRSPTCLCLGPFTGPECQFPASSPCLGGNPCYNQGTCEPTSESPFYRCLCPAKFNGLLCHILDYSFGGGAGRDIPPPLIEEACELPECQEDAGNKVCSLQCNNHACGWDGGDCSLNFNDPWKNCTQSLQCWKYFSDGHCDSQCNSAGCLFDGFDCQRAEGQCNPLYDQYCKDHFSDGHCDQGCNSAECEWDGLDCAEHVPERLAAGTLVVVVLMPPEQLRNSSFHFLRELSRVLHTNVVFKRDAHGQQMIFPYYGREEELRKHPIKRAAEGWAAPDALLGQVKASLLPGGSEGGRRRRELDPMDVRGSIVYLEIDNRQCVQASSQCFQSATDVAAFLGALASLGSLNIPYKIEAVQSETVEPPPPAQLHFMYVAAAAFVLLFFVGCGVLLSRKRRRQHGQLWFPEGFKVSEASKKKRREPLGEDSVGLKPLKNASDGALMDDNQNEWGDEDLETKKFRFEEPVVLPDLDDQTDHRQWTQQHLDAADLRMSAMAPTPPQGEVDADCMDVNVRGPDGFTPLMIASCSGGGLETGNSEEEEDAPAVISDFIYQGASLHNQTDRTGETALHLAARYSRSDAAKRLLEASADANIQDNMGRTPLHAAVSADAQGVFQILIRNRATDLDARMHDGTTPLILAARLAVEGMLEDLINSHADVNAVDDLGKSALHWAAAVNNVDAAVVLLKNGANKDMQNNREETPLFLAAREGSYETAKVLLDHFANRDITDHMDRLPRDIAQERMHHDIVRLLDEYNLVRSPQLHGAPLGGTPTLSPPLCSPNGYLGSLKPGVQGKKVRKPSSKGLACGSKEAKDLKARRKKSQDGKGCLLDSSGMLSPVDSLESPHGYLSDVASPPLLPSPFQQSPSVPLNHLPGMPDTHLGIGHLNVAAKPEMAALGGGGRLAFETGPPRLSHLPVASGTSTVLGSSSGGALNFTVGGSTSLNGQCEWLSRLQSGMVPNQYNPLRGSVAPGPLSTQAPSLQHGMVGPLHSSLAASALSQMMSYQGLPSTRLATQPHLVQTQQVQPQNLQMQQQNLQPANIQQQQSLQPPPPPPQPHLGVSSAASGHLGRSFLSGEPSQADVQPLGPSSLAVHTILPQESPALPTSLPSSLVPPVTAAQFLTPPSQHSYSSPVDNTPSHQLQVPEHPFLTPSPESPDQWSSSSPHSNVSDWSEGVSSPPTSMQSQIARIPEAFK

[2] = In vivo safety in healthy mice (serum biochemistry, HE staining); settings: 2 mg/kg intravenously weekly for 4 weeks
Description: To roughly assess the toxicity of SAH-mAH2-5, healthy BALB/c nude mice (5 weeks) were intravenously injected with SAH-CTRL or SAH-mAH2-5 (2 mg/kg) weekly for 4 weeks. The mice were sacrificed, and organs such as pancreas, lung, spleen, kidney, liver, and colon were extracted, which were then subjected to HE staining to screen morphological abnormalities. In addition, serum was collected for biochemical analysis of alanine aminotransferase (ALT), aspartate aminotransferase (AST), blood urea nitrogen (BUN), and creatinine (CR) by a chemical analyzer TBA-40FR (Toshiba Medical Systems, Japan).

[3] = system: proteinase K, pepsin; assay: Incubation with proteinase K and pepsin; type: in vitro ADME
Description: (§2) To examine the physicochemical stability of SAH-mAH2-5, mAH2, Pep2-mAH2, and SAH-mAH2-5 were incubated with proteinase K, pepsin, and mouse plasma.

[4] = system: PDOX model of PDAC; assay: PDO xenograft (PDOX) models in nude mice, tumor volume and survival; type: in vivo, Nude BALB/c mice; settings: high USP10 and N1ICD expression; 1/2/3/4/5 mg/kg intravenously weekly
Description: All animal experimental procedures met institutional ethical requirements and were approved by the Animal Use and Care Committee of Shanghai Jiaotong University School of Medicine. Nude BALB/c mice (male, 4 to 6 weeks old) were purchased from the Chinese Academy of Sciences (Shanghai, China) and kept in a specific pathogen-free facility. For a subcutaneously-injected tumor model, the pancreatic cancer patient-derived organoids (5×10^6 cells/site) were injected subcutaneously into the right side of each mouse. From the first injection, a tumor volume was measured every 7 d using the formula: tumor volume (mm^3)=½(a×b^2), where “a” represented the longest longitudinal diameter and “b” represented the longest transverse diameter.
To evaluate the efficacy of SAH-mAH2-5 in vivo, Capan1 cells (1×10^7 cells/site) and four organoids (5×10^6 cells/site) were subcutaneously injected. One week after inoculation, SAH-CTRL/SAH-mAH2-5 (1/2/3/4/5 mg/kg) and GEM (50 mg/kg) were intravenously injected weekly at the indicated concentrations. Within 35 d from the first injection, the tumor volume was measured every 7 d, and the formula was: tumor volume (mm^3)=½(a×b^2). […]

[5] = system: pancreatic cancer patient-derived organoids; assay: Growth of pancreatic cancer patient-derived organoids (PDOs); type: cell-based, human
Source text: Four pancreatic cancer tissues were obtained from Ruijin Hospital Affiliated to Shanghai Jiaotong University School of Medicine for organoid culture. All enrolled patients met the following criteria: (i) pathologically diagnosed with pancreatic cancer; (ii) with relatively complete clinicopathological and follow-up data; (iii) without preoperative chemotherapy. Written informed consent was obtained from all relevant patients for the trial, and the study protocol was approved by the Ethics Committee of Ruijin Hospital.
Establishment of patient-derived pancreatic cancer organoids: the normal pancreatic tissues were excised, remaining pancreatic cancer tissues were minced, and enzymatically digested with collagenase (1 mg/ml to 2 mg/ml; Sigma-Aldrich, C9407) in a water bath at 37° C. for 1 h to 2 h. A resulting suspension was filtered through a 100 μm filter to retain tissue debris. The tissue debris was centrifuged at 530 g for 5 min to obtain organoid fractions and resuspended in an RPMI 1640 medium; a resulting suspension was mixed with a cold Matrigel (BD Biocoat, 356234, 10 mg/ml) and then solidified on a pre-warmed 24-well suspension plate at 37° C. for 20 min. After complete gelation, […] of an organoid medium was added to each well, and the plate was transferred to a 37° C./5% humidified CO2 incubator with 2% or ambient O2. […]

[6] = system: N1ICD; assay: Western blot of N1ICD expression, stability and ubiquitination in Capan1 cells; type: cell-based
Source text: (§3) The pancreatic cancer cell line Capan1 was purchased from the Cell Bank of the Chinese Academy of Sciences. The cells were STR-identified, negative for mycoplasma, and cultured in the RPMI 1640 supplemented with 10% fetal bovine serum and antibiotics.
(§4) A RIPA buffer was mixed with a cocktail of proteases and phosphatase inhibitors for lysing cell samples. Proteins were separated by 10% SDS-PAGE and transferred to a PVDF membrane. The images were generated by a Tanon 5200 chemiluminescence imaging system (Shanghai Tanon Life Science Instrument Co., Ltd.). The corresponding proteins were detected with primary antibodies and appropriate secondary antibodies. The primary antibodies were as follows: anti-USP10 (CST, #8501, 1:1000 for WB, 1:200 for IP), anti-β-actin (CST, #3700, 1:1000 for WB), and anti-N1ICD (CST, #4147, 1:1000 for WB, 1:200 for IP).
(§5) Immunoprecipitation analysis: pancreatic cancer cells transfected with indicated plasmid or lentivirus were collected and lysed for 10 min on ice. A resulting lysate was centrifuged to obtain a supernatant, which was then incubated with appropriate antibodies and protein A/G+agarose (Santa Cruz Biotechnology) overnight at 4° C. A resulting immune complex was washed 4 to 6 times and boiled in a 2×SDS sample buffer for 5 min. A resulting product was separated and co-precipitated using SDS-PAGE and blotted with specific antibodies. A resulting binding protein was dissolved in the SDS sample buffer and analyzed by immunoblotting.

[7] = biological target: T2, USP10-N1ICD interaction (Homo sapiens, UniProt P46531); assay: Immunoprecipitation/Western blot of the USP10-N1ICD interaction in Capan1 cells; type: cell-based
T2 construct: endogenous in cells; host or cells: Capan1
T2 sequence (P46531 1754-2555 limits assumed): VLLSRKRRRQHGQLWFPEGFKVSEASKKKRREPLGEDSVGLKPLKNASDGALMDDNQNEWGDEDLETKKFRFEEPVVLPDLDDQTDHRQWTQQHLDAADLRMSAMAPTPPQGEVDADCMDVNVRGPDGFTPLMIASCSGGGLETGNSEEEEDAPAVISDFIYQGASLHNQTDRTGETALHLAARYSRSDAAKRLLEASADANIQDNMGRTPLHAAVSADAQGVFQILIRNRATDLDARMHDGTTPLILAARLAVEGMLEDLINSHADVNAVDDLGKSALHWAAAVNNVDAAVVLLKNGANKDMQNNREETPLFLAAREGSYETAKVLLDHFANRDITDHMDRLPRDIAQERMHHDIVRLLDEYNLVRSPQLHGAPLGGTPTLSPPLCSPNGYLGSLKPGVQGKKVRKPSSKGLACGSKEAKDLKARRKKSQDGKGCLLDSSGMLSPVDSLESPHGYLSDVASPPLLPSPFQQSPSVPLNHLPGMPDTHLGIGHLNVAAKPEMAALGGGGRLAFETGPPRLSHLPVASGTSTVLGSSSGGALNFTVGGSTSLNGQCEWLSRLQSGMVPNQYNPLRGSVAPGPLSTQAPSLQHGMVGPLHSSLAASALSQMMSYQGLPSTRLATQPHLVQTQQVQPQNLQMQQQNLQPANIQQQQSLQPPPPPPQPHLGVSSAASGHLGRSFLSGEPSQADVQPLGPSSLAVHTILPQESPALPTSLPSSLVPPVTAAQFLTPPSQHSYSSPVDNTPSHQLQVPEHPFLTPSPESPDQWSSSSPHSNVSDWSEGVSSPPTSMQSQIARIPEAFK
Source text: as §3, §4
as §5, with “A resulting product was separated and co-precipitated using SDS-PAGE and blotted with specific antibodies.” left out

[8] = biological target: T1, ANK domain of N1ICD; assay: SPR binding to the ANK domain
Description: (§6) Surface plasmon resonance (SPR) analysis was conducted with a BlAcore T200 instrument (GE Healthcare, Pittsburgh, USA) to analyze the binding kinetics between N1DARP or SAH-mAH2-5 and a monitor peptide. Dissociation constants (KD) were calculated according to BIA evaluation software.
(§7) A tertiary structure simulating the N1DARP was analyzed online using I-TASSAR, a hierarchical server for protein structure prediction, and two α-helical peptides (AH1 and AH2) were identified (FIG. 1A, left side). […] Furthermore, in order to identify the essential amino acids that mediated the interaction between mAH2 and ANK, amino acid substitutions were conducted for each amino acid of mAH2 substituted with Ala, which were then subjected to SPR analysis. […] Based on the above evidence, mAH2 was then further modified by inserting molecular staples at 5 positions and denoted as stapled α-helices (SAHs).
Target sequence in this assay (P46531 1872-2126 limits assumed): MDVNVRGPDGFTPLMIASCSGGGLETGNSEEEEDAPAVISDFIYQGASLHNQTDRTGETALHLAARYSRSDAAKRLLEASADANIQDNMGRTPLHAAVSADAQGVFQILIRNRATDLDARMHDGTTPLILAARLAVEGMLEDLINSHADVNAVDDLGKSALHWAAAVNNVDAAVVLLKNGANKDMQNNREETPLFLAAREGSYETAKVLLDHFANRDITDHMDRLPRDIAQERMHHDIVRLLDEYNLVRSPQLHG

[9] = Incubation with mouse plasma; type: in vitro ADME
Description: as §2

[10] = system: ANK1; assay: SPR binding to the α-helical regions ANK1 to ANK6
Description: as §6, §7

[11] = biological target: T1, ANK domain of N1ICD; assay: KD (M); remark: listed apart in the source
Source text: Table printed on a drawing sheet, FIG. 1D
as §1
Target sequence in this assay (P46531 19-2555 limits assumed): as the sequence (P46531 19-2555 limits assumed) above
First copying reader's note: Alanine scan of mAH2; the substituted A is printed in lighter type, and the rows mAH2-7, mAH2-9 and mAH2-14 are highlighted in lighter type.
Where the first naming reader finds the target: passage: A tertiary structure of the ANK domain of N1ICD was obtained from a PDB database

Molecule: CC[C@H](C)[C@H](NC(=O)[C@H](CCCNC(=N)N)NC(=O)[C@H](CCCCN)NC(=O)[C@H](C)NC(=O)[C@@H](N)Cc1ccc(O)cc1)C(=O)N[C@]1(C)CCC/C=C\CCC[C@](C)(C(=O)N[C@@H](CO)C(=O)N[C@@H](CCCCN)C(=O)N[C@@H](CCC(N)=O)C(=O)N[C@@H](CC(C)C)C(=O)O)NC(=O)[C@H](CC(C)C)NC(=O)[C@H](CCC(N)=O)NC(=O)[C@H](Cc2ccc(O)cc2)NC1=O [SAH-mAH2-3] (H-YAKRI[R5]YQL[R5]SKQL-OH; staple (Z) 6-10)
- Kd [1]: 1.05 nM

Molecule: CC[C@H](C)[C@H](NC(=O)[C@H](CCCNC(=N)N)NC(=O)[C@H](CCCCN)NC(=O)[C@H](C)NC(=O)[C@@H](N)Cc1ccc(O)cc1)C(=O)N[C@]1(C)CCC/C=C/CCC[C@](C)(C(=O)N[C@@H](CC(C)C)C(=O)O)NC(=O)[C@H](CCCCN)NC(=O)[C@H](CO)NC(=O)[C@H](CC(C)C)NC(=O)[C@H](CC(C)C)NC(=O)[C@H](CCC(N)=O)NC(=O)[C@H](Cc2ccc(O)cc2)NC1=O [SAH-mAH2-5, stapled α-helix-modified α-helix 2-5] (H-YAKRI[R5]YQLLSK[R5]L-OH; staple (E) 6-13)
- morphology of major organs (HE staining) [2]: without affecting the liver, lungs, and kidneys and other major normal tissues and organs; also recorded: no morphological changes in major functional organs
- serum ALT, AST, BUN and creatinine [2]: no abnormalities in the main indicators of liver and kidney functions
- resistance to proteases [3]: significantly enhanced the resistance to proteases
- median survival [4]: prolonged median survival
- organoid growth inhibition ([5]; PDAC with high USP10 and N1ICD expression levels): significant organoid growth inhibition
- inhibition effect ([5]; PDAC-1 and PDAC-3 models with relatively low USP10 and N1ICD expression levels): poor inhibition effect
- N1ICD deubiquitination ([6]; Capan1 cells): inhibited
- Notch signaling and N1ICD expression ([6]; Capan1 cells): inhibiting Notch signaling and its N1ICD expression in a time- and dose-dependent manner
- N1ICD stability ([6]; Capan1 cells after cycloheximide (CHX)): inhibited N1ICD stability
- USP10-N1ICD interaction [7]: inhibit USP10-N1ICD interaction
- affinity for the ANK domain [8]: strongest binding ability; also recorded: highest affinity for ANK
- half-life in plasma [9]: prolonged the half-life in plasma

Molecule: YAKRIFYQLLSKEL [AH2]
- interaction with ANK1 [10]: readily interacted with ANK1
- Kd [11]: 60.4 nM
- affinity for the ANK domain [8]: higher affinity to the ANK domain

Molecule: YAKRIFYQLLSKQL [mAH2, YAKRIFYQLLSKQL]
- Kd [1]: 60.4 nM
- affinity for the ANK domain [8]: comparable affinity for ANK
